Tests used:
Type in all cases: cell-based
[1] = test system: J774 murine macrophage-like cells; assay: 3[H]-TdR incorporation in growth-arrested J774 cells
Description: (§1) The growth stimulation of macrophage-like cells can be determined by measuring the thymidine uptake of the cells at varying concentrations of the mitogenic peptides of the present invention. This was determined for several macrophage-like cell lines including J774, P388D1, RAW and PU5. These are well-known murine cell lines available, for example, from the American Type Culture Collection, Rockville, Md.
^3 [H]-TdR incorporation. Various cell lines were plated in Dulbeccos's Modified Eagle Medium (DMEM) containing 10% fetal calf serum (FCS) in […] humidified atmosphere at 37° C. at an initial density of 5×10^5 per well in 24 well disposable plastic plates (Falcon, Oxnard, Calif.). Arrest of DNA synthesis (i.e., G0 /G1) was achieved by incubating the cells for 48 hours in serum-free DMEM containing 0.1% bovine serum albumin (BSA). The cells were then exposed to the peptide or to various […], or to FCS for 48 hours. Enhanced thymidine incorporation was assessed following a 2 hour pulse of N-methyl^3 [H]-TdR (1 μCi/ml). The cells were washed ×3 in PBS (phosphate buffered saline, pH 7.4) at 4, precipitated with 10% trichloroacetic acid (30 min at 4) and the insoluble material extracted ×2 with ETOH:ET2 O (3:1 v/v). The precipitate was solubilized in N NaOH and aliquots withdrawn for protein determinations using a dye-binding assay (Bio Rad Labs., Richmond, Calif.) and liquid scintillation spectrometry.
(§2) The various cell lines employed in these tests were the murine macrophage-like cell lines J774, P388D1, RAW and PU5. The various […] used in these tests were platelet-derived growth factor (PDGF), epidermal growth factor (EGF), fibroblast growth factor (FGF), and nerve growth factor (NGF). For background information on these known polypeptide growth factors see, for example, the recent review article by Kris et al., Biotechnology, February 1985, pp. 135-140; and the comprehensive review in Hormonal Proteins and Peptides, Ed. by Choh Hao Li, Vol. 12, "Growth Factors," Academic Press, 1984. EGF, NGF and FGF are commercially available from Biomedical Technologies, Cambridge, Massachusetts. In a representative test, 24 hours following exposure of the growth-arrested cells to optimal concentrations of the peptide (i.e., 10^-8 M), cell numbers inoreased approximately two-fold from a control value of […] cells/culture well. […] The results are set forth in FIG. 2 and in Table I, below. In FIG. 2, the baseline tritiated thymidine (^3 [H]-TdR) incorporation in quiescent J774 cells was 5000 cpm ± 420 s.e.m. (standard error of the mean) per well. The results are expressed as the mean of triplicate determinations.

[2] = test system: growth-arrested murine macrophage-like cells; assay: Cell number / proliferation of growth-arrested macrophage-like cells; settings: for proliferation of macrophage-like cells: concentration ranges of up to 500 ng/ml
Source text: as §2

[3] = test system: PU5 murine macrophage-like cell line; assay: 3[H]-TdR incorporation in growth-arrested PU5 cells
Description: as §1
(§3) ^3 [H]-TdR incorporation. Various cell lines were plated in Dulbeccos's Modified Eagle Medium (DMEM) containing 10% fetal calf serum (FCS) in […] humidified atmosphere at 37° C. at an initial density of 5×10^5 per well in 24 well disposable plastic plates (Falcon, Oxnard, Calif.). Arrest of DNA synthesis (i.e., G0 /G1) was achieved by incubating the cells for 48 hours in serum-free DMEM containing 0.1% bovine serum albumin (BSA). The cells were then exposed to the peptide or to various […], or to FCS for 48 hours. Enhanced thymidine incorporation was assessed following a 2 hour pulse of N-methyl^3 [H]-TdR (1 μCi/ml). […]
(§4) The various cell lines employed in these tests were the murine macrophage-like cell lines J774, P388D1, RAW and PU5. […] The results are expressed as the mean of triplicate determinations.

[4] = test system: P388D1 murine macrophage-like cell line; assay: 3[H]-TdR incorporation in growth-arrested P388D1 cells
Description: as §1, §3, §4

[5] = test system: RAW murine macrophage-like cell line; assay: 3[H]-TdR incorporation in growth-arrested RAW cells
Description: as §1, §3, §4

[6] = J774, test (1), >500 ng per well (highest concentration tested), 48 hours exposure, mean ± s.e.m.

PDGF [reference compound]
3[H]-TdR Incorporation/mg/Protein (% Increase) [1, 6]: 9.4± 0.3% | proliferation of macrophage-like cells [2]: failed to elicit proliferation

H-YPPWNKNFTENDLL-OH [Peptide I, H-Tyr-Pro-Pro-Trp-Asn-Lys-Asn-Phe-Thr-Glu-Asn-Asp-Leu-Leu-OH]
Conc./Well: concentration yielding optimal specific 3[H]-TdR incorporation ([3]; PU5): 10^ -6 M | 3[H]-TdR Incorporation/mg/Protein (% Increase) ([3]; PU5, test (2), 10^-6 M per well, mean ± s.e.m.): 112± 4.4% | Conc./Well: concentration yielding optimal specific 3[H]-TdR incorporation ([1]; J774): 10^-8 M | 3[H]-TdR Incorporation/mg/Protein (% Increase) ([1]; J774, test (1), 10^-8 M per well, 48 hours exposure, mean ± s.e.m. of triplicate cultures): 140± 8.5% | 3[H]-TdR Incorporation/mg/Protein (% Increase) ([1]; J774, test (2), 10^-8 M per well, mean ± s.e.m.): 190± 12% | increase in cell numbers over control ([2]; 24 hours after exposure of growth-arrested cells to 10^-8 M): approximately two-fold | Conc./Well: concentration yielding optimal specific 3[H]-TdR incorporation ([4]; P388D1): 10^ -7 M | 3[H]-TdR Incorporation/mg/Protein (% Increase) ([4]; P388D1, test (2), 10^-7 M per well, mean ± s.e.m.): 226± 22% | Conc./Well: concentration yielding optimal specific 3[H]-TdR incorporation [5]: 10^ -8 M | 3[H]-TdR Incorporation/mg/Protein (% Increase) ([5]; test (2), 10^-8 M per well, mean ± s.e.m.): 276± 18%

NGF: nerve growth factor, known polypeptide growth factor [reference compound]
3[H]-TdR Incorporation/mg/Protein (% Increase) [1, 6]: 0± 0.5% | proliferation of macrophage-like cells [2]: failed to elicit proliferation

EGF: epidermal growth factor, known polypeptide growth factor [reference compound]
3[H]-TdR Incorporation/mg/Protein (% Increase) [1, 6]: 5.2± 0.2% | proliferation of macrophage-like cells [2]: failed to elicit proliferation
